Test results published in patent publication US11512090B2, “Muscarinic acetylcholine M1 receptor antagonists” (PIPELINE THERAPEUTICS, INC., priority 2018, dated 2022).

Experiments:
M3 = M3 (Homo sapiens, UniProt P20309); assay: In vitro functional assay of muscarinic acetylcholine receptor activity, M3; assay type: cell-based; settings: antagonist IC50 at M3; read-out: M3 IC50
Protocol: [The procedure below names another target; the source lists this target under the same test.] (§1) CHO-K1 cells stably expressing human M1 receptor with Aequorin (Perkin Elmer) were grown in F12 media, 10% FBS with 0.4 mg/mL geneticin and […]. Cells were grown to confluence and frozen down to be assayed at a later date. On the day of the experiment cells were thawed in a 37° C. water bath, resuspended in DMEM/HAM's F12 with HEPES (Invitrogen)+0.1% protease-free BSA (assay buffer), and spun down to remove freezing media. After centrifugation, supernatant was removed and 12 mL of assay buffer was added. Coelenterazine h (Promega) was added to the cells at a final concentration of 5 uM and incubated for 4 hours at room temperature in the dark. Compound master plate-96 deep well (Corning) were formatted in a 8-point DRC in assay buffer with 0.2% DMSO at a starting concentration of 60 uM (2×). After 4 hours of incubation, cells were plated at a concentration of 5×10^5 cells/well in 96 well white-walled, tissue culture-treated, clear-bottom plates (VWR). Compounds were added to the daughter plate, and cells plus compound were incubated at room temperature for 30 minutes in the dark.
(§2) Calcium flux was measured using the FlexStation 3 (Molecular Devices). To measure the antagonist dose-response, the EC80 of Acetylcholine was injected to the daughter plate using the automated compound transfer function of the Flex Station, and the increase in luminescence was measured over time. Antagonist activity was analyzed as a concentration dependent decrease in the EC80 acetylcholine response. Dose response curves were generated using Prism (GraphPad Software). The IC50 of the compounds was calculated from the dose response curve.

M2 = target: T1, M2 (Homo sapiens, UniProt P08172); assay: In vitro functional assay of muscarinic acetylcholine receptor activity, M2; assay type: cell-based; settings: antagonist IC50 at M2; read-out: M2 IC50
T1 sequence (P08172 1-466): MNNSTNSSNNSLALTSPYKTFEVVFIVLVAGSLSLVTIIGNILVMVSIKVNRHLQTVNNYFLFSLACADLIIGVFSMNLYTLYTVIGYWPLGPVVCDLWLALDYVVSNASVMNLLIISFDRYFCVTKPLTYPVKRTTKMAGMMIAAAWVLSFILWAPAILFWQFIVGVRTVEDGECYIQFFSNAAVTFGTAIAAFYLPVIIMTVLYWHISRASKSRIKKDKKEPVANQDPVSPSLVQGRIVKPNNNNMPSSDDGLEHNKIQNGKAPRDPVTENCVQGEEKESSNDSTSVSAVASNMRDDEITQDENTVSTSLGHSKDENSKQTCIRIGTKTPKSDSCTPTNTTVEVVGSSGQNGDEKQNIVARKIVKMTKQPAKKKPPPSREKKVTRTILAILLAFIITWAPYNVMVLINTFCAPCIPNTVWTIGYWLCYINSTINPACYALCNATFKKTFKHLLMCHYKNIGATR
Protocol: [The procedure below names another target; the source lists this target under the same test.] as §1, §2

M3, sequence (P20309 whole entry): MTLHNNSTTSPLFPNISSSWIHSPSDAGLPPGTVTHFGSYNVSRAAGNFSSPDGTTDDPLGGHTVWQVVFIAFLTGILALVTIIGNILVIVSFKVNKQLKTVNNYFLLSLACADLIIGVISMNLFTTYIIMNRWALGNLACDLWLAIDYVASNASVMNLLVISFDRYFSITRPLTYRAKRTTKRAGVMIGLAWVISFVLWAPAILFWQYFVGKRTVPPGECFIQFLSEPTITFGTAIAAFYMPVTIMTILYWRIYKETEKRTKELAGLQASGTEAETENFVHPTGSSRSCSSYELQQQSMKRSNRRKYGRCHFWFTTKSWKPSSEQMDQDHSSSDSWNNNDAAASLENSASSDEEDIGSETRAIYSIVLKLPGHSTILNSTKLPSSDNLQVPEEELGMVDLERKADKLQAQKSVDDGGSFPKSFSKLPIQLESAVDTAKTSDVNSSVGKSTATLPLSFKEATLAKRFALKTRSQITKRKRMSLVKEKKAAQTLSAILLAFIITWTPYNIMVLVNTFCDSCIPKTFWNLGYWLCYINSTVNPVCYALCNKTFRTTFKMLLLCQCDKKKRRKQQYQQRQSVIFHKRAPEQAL

IC50 (M3) [nM]	IC50 (M2) [nM]	SMILES
1000 to 10000	1000 to 10000	Cc1cc(F)cnc1N1CCN(C(=O)CCCc2cccc3ncccc23)[C@@H](C)C1 [Example 6, 1-[(2S)-4-(5-fluoro-3-methylpyridin-2-yl)-2-methylpiperazin-1-yl]-4-(quinolin-5-yl)butan-1-one]
1000 to 10000	1000 to 10000	Cc1cc(F)cnc1N1CCN(C(=O)CCCc2cccc3nc(N)sc23)[C@@H](C)C1 [Example 20, 4-(2-amino-1,3-benzothiazol-7-yl)-1-[(2S)-4-(5-fluoro-3-methylpyridin-2-yl)-2-methylpiperazin-1-yl]butan-1-one]
> 10000	1000 to 10000	O=C(CCCc1cccc2ncccc12)N1CCN(c2ccc(F)cn2)CC1 [Example 51, 1-(4-(5-fluoropyridin-2-yl)piperazin-1-yl)-4-(quinolin-5-yl)butan-1-one]
1000 to 10000	1000 to 10000	CC1CN(c2ccc(F)cn2)CCN1C(=O)CCCc1cccc2ncccc12 (centres unmarked) [Example 58, 1-(4-(5-fluoropyridin-2-yl)-2-methylpiperazin-1-yl)-4-(quinolin-5-yl)butan-1-one]
100 to 1000	< 100	Cc1cc(F)cnc1N1CCN(C(=O)CCCc2cccc3ncccc23)C(C)C1 (centres unmarked) [Example 59, 1-(4-(5-fluoro-3-methylpyridin-2-yl)-2-methylpiperazin-1-yl)-4-(quinolin-5-yl)butan-1-one]
1000 to 10000	1000 to 10000	CC1CN(C(=O)CCCc2cccc3ncccc23)CCN1c1ccc(F)cn1 (centres unmarked) [Example 61, 1-(4-(5-fluoropyridin-2-yl)-3-methylpiperazin-1-yl)-4-(quinolin-5-yl)butan-1-one]
1000 to 10000	100 to 1000	Cc1cc(F)cnc1N1CCN(C(=O)CCCc2cccc3ncccc23)CC1C (centres unmarked) [Example 62, 1-(4-(5-fluoro-3-methylpyridin-2-yl)-3-methylpiperazin-1-yl)-4-(quinolin-5-yl)butan-1-one]
100 to 1000	100 to 1000	Cc1cc(F)cnc1N1CCN(C(=O)CCCc2cccc3ncccc23)[C@H](C)C1 [Example 66, (R)-1-(4-(5-fluoro-3-methylpyridin-2-yl)-2-methylpiperazin-1-yl)-4-(quinolin-5-yl)butan-1-one]
1000 to 10000	1000 to 10000	C[C@@H]1CN(c2ncc(F)cc2Cl)CCN1C(=O)CCCc1cccc2ncccc12 [Example 80, (R)-1-(4-(3-chloro-5-fluoropyridin-2-yl)-2-methylpiperazin-1-yl)-4-(quinolin-5-yl)butan-1-one]
1000 to 10000	1000 to 10000	Cc1cc(F)cnc1N1CCN(C(=O)CCCc2cccc3ncoc23)[C@@H](C)C1 [Example 83, (S)-4-(benzo[d]oxazol-7-yl)-1-(4-(5-fluoro-3-methylpyridin-2-yl)-2-methylpiperazin-1-yl)butan-1-one]
1000 to 10000	> 10000	N#Cc1cc(N2CCN(C(=O)CCS(=O)(=O)c3cccc4ncsc34)CC2)ccn1 [Example 100, 4-(4-(3-(benzo[d]thiazol-7-ylsulfonyl)propanoyl)piperazin-1-yl)picolinonitrile]
1000 to 10000	1000 to 10000	CC1CN(C(=O)CCS(=O)(=O)c2cccc3ncsc23)CC(C)N1c1ccc(C#N)cn1 (centres unmarked) [Example 128, 6-{4-[3-(1,3-benzothiazole-7-sulfonyl)propanoyl]-2,6-dimethylpiperazin-1-yl}pyridine-3-carbonitrile]
> 10000	> 10000	CC1CN(c2ccc(C#N)cn2)CC(C)N1C(=O)CCS(=O)(=O)c1cccc2ncsc12 (centres unmarked) [Example 134, 6-{4-[3-(1,3-benzothiazole-7-sulfonyl)propanoyl]-3,5-dimethylpiperazin-1-yl}pyridine-3-carbonitrile]
